Data reported in ChEMBL document CHEMBL4177601, “Dual antioxidant structures with potent anti-inflammatory, hypolipidemic and cytoprotective properties” (Bioorg Med Chem Lett, 2017).
Calls of active or inactive are those of the source. The calls are words filed in the database; no cut-off is given here.

Experiments:
Rattus norvegicus [1] = test: Anti-inflammatory activity in rat assessed as reduction in carrageenan-induced hind paw oedema at 0.15 mmol/kg, ip pretreated for 5 mins followed by carrageenan challenge measured after 3.5 hrs; format: functional; set-up: scale not given: the % may be the effect or the level left
Lipoxygenase = Lipoxygenase (Glycine max, UniProt Q39829); test: Inhibition of soybean lipoxygenase using sodium linoleate as substrate measured after 7 mins
Liver [2] = test: Antioxidant activity in rat hepatic microsomes assessed as inhibition of FeSO4-induced lipid peroxidation measured after 45 mins by spectrophotometry; format: functional, microsome; conditions: 0.75 h
[3] = Antioxidant activity assessed as DPPH radical scavenging activity at 200 uM measured after 30 mins relative to control; format: functional
[4] = Antioxidant activity assessed as DPPH radical scavenging activity at 50 uM measured after 30 mins relative to control; format: functional
[5] = Antioxidant activity assessed as DPPH radical scavenging activity at 100 uM measured after 30 mins relative to control; format: functional
Mus musculus = test: Anti-inflammatory activity in Balb/C mouse assessed as reduction in carrageenan-induced hind paw oedema at 0.15 mmol/kg, ip pretreated for 1 hr followed by carrageenan challenge; format: functional; set-up: scale not given: the % may be the effect or the level left
Rattus norvegicus [6] = test: Protection against paracetamol-induced liver injury in rat assessed as reduction in plasma GOT level at 1 mmol/kg, po measured at 24 hrs post paracetamol challenge relative to control; format: functional; set-up: scale not given: the % may be the effect or the level left
Rattus norvegicus [7] = test: Protection against paracetamol-induced liver injury in rat assessed as reduction in plasma GPT level at 1 mmol/kg, po measured at 24 hrs post paracetamol challenge relative to control; format: functional; set-up: scale not given: the % may be the effect or the level left
Liver [8] = test: Potency index, ratio of trolox IC50 to test compound IC50 for inhibition FeSO4-induced lipid peroxidation in rat hepatic microsomes; format: functional; conditions: microsome
Rattus norvegicus [9] = test: Protection against paracetamol-induced liver injury in rat assessed as reduction in plasma LDH level at 1 mmol/kg, po measured at 24 hrs post paracetamol challenge relative to control; format: functional; set-up: scale not given: the % may be the effect or the level left
Rattus norvegicus [10] = test: Hypolipidemic activity in triton WR1339-induced rat model of hyperlipidemia assessed as reduction in plasma total cholesterol level at 150 umol/kg, ip administered after 1 hr post triton WR1339 challenge measured after 24 hrs relative to control; format: functional; set-up: scale not given: the % may be the effect or the level left
Rattus norvegicus [11] = test: Hypolipidemic activity in triton WR1339-induced rat model of hyperlipidemia assessed as reduction in plasma total triglyceride level at 150 umol/kg, ip administered after 1 hr post triton WR1339 challenge measured after 24 hrs relative to control; format: functional; set-up: scale not given: the % may be the effect or the level left
Liver [12] = test: Antioxidant activity in rat hepatic microsomes assessed as inhibition of FeSO4-induced lipid peroxidation at 1 to 1000 uM measured after 45 mins by spectrophotometry; format: functional; conditions: microsome
[13] = Antioxidant activity assessed as DPPH radical scavenging activity at 25 to 200 uM measured after 30 mins; format: functional

Row | IC50 (Liver [2]) [µM] | Compound | Activity (Rattus norvegicus [1]) [%] | Activity [3] [%] | Activity [4] [%] | Activity [5] [%] | inhibition (Liver [12]) | further results
1 | 45 | CC(C)(C)c1cc(C(=O)NCCS)cc(C(C)(C)C)c1O | 87 | 85 | 20 | 45 |  | IC50 (Lipoxygenase): 121 µM
2 | 40 | CCOC(=O)C(CS)NC(=O)/C=C/c1cc(C(C)(C)C)c(O)c(C(C)(C)C)c1 (stereo unspecified) | 61 | 96 | 37 | 70 |  | IC50 (Lipoxygenase): 135 µM
3 | 200 | CCOC(=O)C(CS)NC(=O)c1cc(C(C)(C)C)c(O)c(C(C)(C)C)c1 (stereo unspecified) | 59 | 85 | 23 | 46 |  | IC50 (Lipoxygenase): 67 µM
4 |  | NCCS [CYSTEAMINE] |  |  |  |  |  | Activity (Mus musculus): 15%
5 | 1.6 | Cc1c(C)c2c(c(C)c1O)CCC(C)(C(=O)NCCS)O2 (stereo unspecified) | 67 | 93 | 61 | 92 |  | Activity (Rattus norvegicus [6]): 26%; Activity (Rattus norvegicus [7]): 15%; Ratio IC50 (Liver [8]): 10; Activity (Rattus norvegicus [9]): 70%; Activity (Rattus norvegicus [10]): 67.1%; Activity (Rattus norvegicus [11]): 47.3%
6 |  | CC(C)Cc1ccc(C(C)C(=O)O)cc1 (stereo unspecified) [IBUPROFEN] | 36 |  |  |  |  | 
7 |  | CCOC(=O)C(CS)NC(=O)/C=C/c1ccccc1 (stereo unspecified) | 35 | 86 | 27 | 42 | inactive | 
8 |  | O=C(/C=C/c1ccccc1)NCCS | 38 | 86 | 31 | 59 | inactive | 
9 |  | O=C(/C=C/c1ccccc1)NCCSSCCNC(=O)/C=C/c1ccccc1 | 42 |  |  |  | inactive | Activity [13]: Active
10 | 25 | Cc1c(C)c2c(c(C)c1O)CCC(C)(C(=O)O)O2 (stereo unspecified) [TROLOX] |  |  |  |  |  | 
11 |  | CCOC(=O)[C@@H](N)CS |  |  |  |  |  | Activity (Mus musculus): 25%
12 | 3 | CCOC(=O)C(CS)NC(=O)C1(C)CCc2c(C)c(O)c(C)c(C)c2O1 (stereo unspecified) | 39 | 93 | 61 | 91 |  | Activity (Rattus norvegicus [6]): 70%; Activity (Rattus norvegicus [7]): 64%; Ratio IC50 (Liver [8]): 10; Activity (Rattus norvegicus [9]): 78%; Activity (Rattus norvegicus [10]): 73%; Activity (Rattus norvegicus [11]): 72.3%
13 |  | CC(C)(C)c1cc(C(=O)NCCSSCCNC(=O)c2cc(C(C)(C)C)c(O)c(C(C)(C)C)c2)cc(C(C)(C)C)c1O |  |  |  |  | inactive | Activity [13]: Active
14 | 250 | CC(C)(C)c1cc(C(=O)O)cc(C(C)(C)C)c1O |  |  |  |  |  | 
15 |  | CCOC(=O)C(CSSCC(NC(=O)/C=C/c1ccccc1)C(=O)OCC)NC(=O)/C=C/c1ccccc1 (stereo unspecified) |  |  |  |  | inactive | Activity [13]: Active
16 |  | CCOC(=O)C(CSSCC(NC(=O)c1cc(C(C)(C)C)c(O)c(C(C)(C)C)c1)C(=O)OCC)NC(=O)c1cc(C(C)(C)C)c(O)c(C(C)(C)C)c1 (stereo unspecified) | 36 |  |  |  | inactive | Activity [13]: Active
17 | 30 | CC(C)(C)c1cc(/C=C/C(=O)NCCS)cc(C(C)(C)C)c1O | 67 | 92 | 34 | 60 |  | IC50 (Lipoxygenase): 160 µM
